# Experimental data taken from patent US12485104B2, “Amino acid derivatives containing a disulfanyl group as an inhibitor of NEP and APN for the prevention and treatment of trigeminal nerve pain” (KOS THERAPEUTICS, INC., priority 2018, dated 2025).
# Key:
# [1] = test system: SJL mice, EAE model (hyperalgesia); assay: Tail immersion test in multiple sclerosis model (experimental autoimmune encephalomyelitis, EAE); format: in vivo; settings: for Nociceptive threshold (tail withdrawal latency time): 20 min after administration, 48° C. bath
# Source text: The multiple sclerosis model can be induced in SJL mice, female albino white mice, by the administration of an emulsion made up of a myeline fragment and complete Freund® adjuvant (Aicher et al., Pain (2004), 110: 560-570). Central nervous system inflammation appears at the end of around ten days=experimental autoimmune encephalomyelitis, or EAE.
# Female SJL mice, purchased from Charles River Laboratories, arrive at the age of 5 weeks and are immunized at the age of 6 weeks. Each mouse receives, under mask anesthesia (2% isoflurane), an emulsion of a volume of 200 μL in the left flank, containing 150 μg of PLP139-151 (Proteolipid Protein Myelin, fragment 139-151) in 100 μL of sterile 0.9% NaCl as well as 100 μL of incomplete Freund® adjuvant (Sigma) completed by inactivated Mycobacterium tuberculosis (Difco, USA) at 4 mg/mL=complete adjuvant.
# The symptoms of the disease are reported between D10 and D15, which is reflected by an acute phase, during which scores are high and the animals present a loss of pain sensitivity. This phase precedes a chronic phase which starts around D18 and is characterized by stabilization of the animals general condition and the onset of a significant lowering in the pain perception threshold (hyperalgic state) (Aicher et al., Pain (2004), 110: 560-570).
# Nociceptive thresholds were determined from D12 by the tail immersion test.
# Compound 1 is administered IP (intraperitoneally) at 50 mg/kg and 100 mg/kg in a EtOH/Tween 80/Water carrier (10/10/80) (100 μL per 10 g of mice). The measurement of time of tail withdrawal from a 48° C. bath is done at 20 min after injection (cut-off=10 sec).
# [2] = test system: rats, chronic migraine model induced by repeated injection of isosorbide dinitrate (ISDN); assay: Prevention of migraine attacks by oral administration, chronic ISDN model, von Frey test; format: in vivo
# Method: The effects of oral administration of compound 1 on mechanical cephalic allodynia were tested in rats in a chronic migraine model induced by repeated systemic injection of an NO donor, isosorbide dinitrate (ISDN). Indeed, the powerful vasodilating action of “NO donors” explains their particular propensity to trigger headache in healthy subjects and migraine attacks in migraine patients (Hansen & Olesen, Cephalalgia (2017), 37: 11-19).
# The experiments were conducted on male rats (10 rats per group of the Sprague-Dawley CD strain (200-250 g, Charles River Laboratories), randomly assigned into each group before experimentation. A minimum delay of 7 days was respected before any experimentation. The experiments were conducted with the experimenter blinded.
# (§1) The animals were first subjected to habituation sessions designed to reproduce the animals environmental conditions and handling by the experimenter during the final test.
# The mechanical sensitivity of the periorbital region was measured by the von Frey test, which consists of applying a range of von Frey filaments in this region, calibrated to exert a constant force (expressed in grams) to determine the force (threshold) that leads to a head withdrawal reaction. The rats were habituated to these tests for 5 days preceding the experiment for one hour, so that repeated measurements give reproducible results. […] The rats then received successive intraperitoneal injections of ISDN (10 mg/kg) and cutaneous sensitivity was assessed by means of the von Frey test. […]
# Cutaneous mechanical sensitivity was measured before and on the test day (FIG. 4, single administration of compound 1 or FIG. 6, repeated administration of compound 1) or before and on the test day (Days 1, 2, 3, 4 and 5) (FIG. 5, repeated administration of compound 1) before injection and at 30 min intervals for 4 h in the different groups of rats receiving intraperitoneal ISDN (10 mg/kg, volume of 10 mL/kg). […]
# healthy volunteers = assay: Adverse effects observed during phase 1b clinical study; settings: N = 6
# Method: The doses indicated in the following table were administered 4 times a day for 5 days, the daily dose varying from 800 to 4000 mg, the total quantity over five days being comprised between 4000 and 20,000 mg.
# [3] = test system: rats, migraine model induced by single injection of isosorbide dinitrate (ISDN); assay: Mechanical cephalic allodynia induced by single ISDN (acute migraine), von Frey test, oral treatment; format: in vivo; settings: 50 mg/kg orally (FIG. 3)
# Method: The effects of systemic administration of compound 1 on mechanical cephalic allodynia were tested in rats in a migraine model induced by single systemic injection of an NO donor, isosorbide dinitrate (ISDN). Indeed, the powerful vasodilating action of “NO donors” explains their particular propensity to trigger headache in healthy subjects and migraine attacks in migraine patients (Hansen & Olesen, Cephalalgia (2017), 37: 11-19).
# The experiments were conducted on male Sprague-Dawley CD rats (200-250 g, Charles River Laboratories). A minimum delay of 7 days was respected before any experimentation.
# as §1
# (§2) The mechanical sensitivity of the periorbital region was measured by the von Frey test, which consists of applying a range of von Frey filaments in this region, calibrated to exert a constant force (expressed in grams) to determine the force (threshold) that leads to a head withdrawal reaction. […] The rats then received an intraperitoneal injection of ISDN (10 mg/kg) and cutaneous sensitivity was assessed by means of the von Frey test. […] On the day of the experiment, the forces exerted by the von Frey filaments that led to head withdrawal were measured in each rat under controlled conditions every 30 minutes for 4 hours. […]
# [4] = test system: rats, migraine model induced by repeated injection of isosorbide dinitrate (ISDN); assay: Persistent cephalic allodynia induced by recurrent ISDN (chronic migraine), von Frey test, IV treatment; format: in vivo; settings: 20 mg/kg intravenously (FIG. 2)
# Method: The effects of systemic administration of compound 1 on mechanical cephalic allodynia were tested in rats in a migraine model induced by repeated systemic injection of an NO donor, isosorbide dinitrate (ISDN). Indeed, the powerful vasodilating action of “NO donors” explains their particular propensity to trigger headache in healthy subjects and migraine attacks in migraine patients (Hansen & Olesen, Cephalalgia (2017), 37: 11-19).
# The experiments were conducted on male Sprague-Dawley CD rats (200-250 g, Charles River Laboratories). A minimum delay of 7 days was respected before any experimentation. […]
# as §2, with “received successive” for “received an”, “intraperitoneal injections” for “intraperitoneal injection”
# [5] = 200 mg 4 times a day for 5 days
# [6] = 400 mg 4 times a day for 5 days
# [7] = 600 mg 4 times a day for 5 days
# [8] = 800 mg 4 times a day for 5 days
# [9] = 1000 mg 4 times a day for 5 days
smiles,measurement,setting,value
"CCOC(=O)OC(C)OC(=O)CNC(=O)[C@@H](CSSC[C@@H](N)CCSC)Cc1ccccc1.O=C(O)/C=C/C(=O)O (stereo partly drawn) [Compound 1, (5S,10S)-10-benzyl-16-methyl-11,14,18-trioxo-15,17,19-trioxa-2,7,8-trithia-12-azahenicosan-5-aminium fumarate]",Nociceptive threshold (tail withdrawal latency time),"[1]; 50 mg/kg IP, D21",5.12 (4) seconds
same,Nociceptive threshold (tail withdrawal latency time),"[1]; 50 mg/kg IP, D28",4.14 (5) seconds
same,Nociceptive threshold (tail withdrawal latency time),"[1]; 100 mg/kg IP, D28",5.98 (5) seconds
same,Nociceptive threshold (tail withdrawal latency time),"[1]; 100 mg/kg IP, D35",5.46 (5) seconds
same,Effect on hyperalgesia,[1]; 50 and 100 mg/kg IP (FIG. 1),permits reducing hyperalgesia
same,Effect on cutaneous cephalic sensitivity (von Frey),"[2]; 50 mg/kg orally once daily for 5 days, as a function of time after ISDN, versus carrier (FIG. 6)",significantly reduces cutaneous cephalic sensitivity
same,Effect on cutaneous cephalic sensitivity (von Frey),[2]; 50 mg/kg orally once on the experiment day (FIG. 4),had no effect on cutaneous cephalic sensitivity
same,Effect on cutaneous cephalic sensitivity (von Frey),"[2]; 50 mg/kg orally repeatedly over 5 days, before administration of ISDN, versus carrier (FIG. 5)",significantly reduces cutaneous cephalic sensitivity
same,Subjects with Death,healthy volunteers; [5],0
same,Subjects with LAE (limiting adverse event),healthy volunteers; [5],0
same,Subjects with SAE (serious adverse event),healthy volunteers; [5],0
same,"Subjects with TEAEs, (%)",healthy volunteers; [5],16.7%
same,"TEAEs, E = number of adverse reactions",healthy volunteers; [5],3
same,Subjects with Death,healthy volunteers; [6],0
same,Subjects with LAE (limiting adverse event),healthy volunteers; [6],0
same,Subjects with SAE (serious adverse event),healthy volunteers; [6],0
same,"Subjects with TEAEs, (%)",healthy volunteers; [6],83.3%
same,"TEAEs, E = number of adverse reactions",healthy volunteers; [6],12
same,Subjects with Death,healthy volunteers; [7],0
same,Subjects with LAE (limiting adverse event),healthy volunteers; [7],0
same,Subjects with SAE (serious adverse event),healthy volunteers; [7],0
same,"Subjects with TEAEs, (%)",healthy volunteers; [7],66.7%
same,"TEAEs, E = number of adverse reactions",healthy volunteers; [7],7
same,Subjects with Death,healthy volunteers; [8],0
same,Subjects with LAE (limiting adverse event),healthy volunteers; [8],0
same,Subjects with SAE (serious adverse event),healthy volunteers; [8],0
same,"Subjects with TEAEs, (%)",healthy volunteers; [8],100.0%
same,"TEAEs, E = number of adverse reactions",healthy volunteers; [8],10
same,Subjects with Death,healthy volunteers; [9],0
same,Subjects with LAE (limiting adverse event),healthy volunteers; [9],0
same,Subjects with SAE (serious adverse event),healthy volunteers; [9],0
same,"Subjects with TEAEs, (%)",healthy volunteers; [9],66.7%
same,"TEAEs, E = number of adverse reactions",healthy volunteers; [9],15
same,Effect on cephalic cutaneous sensitivity (von Frey),[3],considerably reduces cephalic cutaneous sensitivity
same,Effect on cephalic cutaneous sensitivity (von Frey),[4],considerably reduces cephalic cutaneous sensitivity
